Data set [1] concerns human umbilical vein endothelial cells (HUVEC). Nature of the data set: HUVEC tube formation assay (angiogenesis assay). The class given is cell-based. Conditions: for inhibition of angiogenesis / HUVEC tube structure: HUVEC on Matrigel, five-hour incubation; for collapse of volume of tube structure compared to PBS-treated control: matrigel induced vasculature of HUVEC cells, PBS-dissolved peptides. An excerpt:
Overnight starved human umbilical vein endothelial cells (HUVEC) were collected and adjusted to 1.5×10^4 cells/well (in a 96-well plate) with endothelial cell growth medium and then seeded cells on the matrigel-coated well. Different peptides and their modified forms by D-form non-nature amino acids and/or cyclization by adding N- and C-terminal Cystines; also SEQ132 is a reversal of the direction of the peptide backbone SEQ6 (retro modification): (SEQ17, SEQ78, SEQ97, MR9 DF, CMR9C, CMR9C DF, MR9D6 DF, CMR9D6C DF and SEQ132) or control PBS were added into well for five-hour incubation at 37° C. Each well was photographed at ×40 magnification through an upright microscope. Total tube lengths were quantified by using ImageJ software.

The test system of a further data set is MDCK cells. Nature of the data set: EMT assay (HGF-induced EMT, inter-nuclear distance). Conditions: HGF 2.5 ng/ml.
In data set [2] the test system is rat eyes choroidal neovascularization. Put plainly: Rat laser-induced choroidal neovascularization model. The following applies: injected into vitreous body, 14 days after laser; Eylea 200 μg/5 μl, SEQ97 500 μg/5 μl; n=10. The class given is in vivo. As to the method: The animals were fully anesthetized with a mixture of ketamine hydrochloride/xylazine hydrochloride (7:1, v/v) by intramuscular injection into the thigh muscle at 1 mL/kg. Mydrin®-P ophthalmic solution (Santen Pharmaceutical Co., Ltd.) was instilled into the eyes to dilate the pupils. Laser (wavelength: 532 nm) was used to irradiate the right eye of each animal using a Slit Lamp SL-130 (Carl Zeiss Meditec AG) and a Multicolor Laser Photocoagulator MC-300 (NIDEK Co., Ltd.). Then the peptide dosing formulation was injected into the vitreous body of the right eye using a microsyringe (MS-N10, Ito Corporation) and a 33 G needle (Ito Corporation). Fourteen days after laser irradiation, a 4% FITC-dextran solution was administered into the tail vein in a volume of 1 mL/animal. Then the animals were euthanized by overdose of an anesthetic. The eyeballs were removed and fixed in 4% paraformaldehyde-phosphate buffer for 12-24 hours. Choroidal flat mounts were prepared under a stereoscopic microscope (EZ-4, Leica Microsystems). […]
Eyes of rats were irradiated by 532 nm wave length laser and intraveally treated with peptides (SEQ97), Eylea or PBS. […] After treatment (PBS, Eylea or SEQ97) for 14 days, the photographs of the choroidal neovascularization sites were taken and quantified with ImageJ software. […]

“Also recorded” adds a separate entry of the source. Where a SMILES comes first, the peptide text is derived from it.

Procedure for MDCK cells: MDCK cells (800 cells/well) were seeded onto 96-well plate and incubated in 37° C. and 5% CO2 to become 10% sub-confluence. Then EMT was triggered by adding culture medium with cell scattering factor HGF (R&D system, 2.5 ng/ml) and tested peptides were added (SEQ2˜SEQ31) to block EMT. To measure the inter-nuclear distance, random images were captured at ×50 magnification using an upright microscope. The inter-nuclear distance was measured from the center of one nucleus to that of a neighboring/adjacent nucleus. The distance between the two nuclei was measured by using ImageJ software.

For the compound VSTSEQRAIKWKEAM [SEQ132], the “inhibition of angiogenesis / HUVEC tube structure” value in data set [1] is on record as “strong efficacy to inhibit HUVEC tube structure”.

In the case of `CC[C@H](C)[C@H](NC(=O)[C@H](CCCCN)NC(=O)[C@H](Cc1c[nH]c2ccccc12)NC(=O)[C@H](CCCCN)NC(=O)[C@H](CCC(=O)O)NC(=O)[C@H](C)NC(=O)[C@@H](N)CCSC)C(=O)N[C@@H](C)C(=O)N[C@@H](CCCNC(=N)N)C(=O)O` [SEQ17, MAEKWKIAR] (H-MAEKWKIAR-OH; N-terminus and C-terminus assumed), in the data set with MDCK cells, the “inhibition of HGF (hepatocyte growth factor) induced EMT (epithelial-mesenchymal transition)” value (“inhibition of HGF” for short) is “advantageous effect in the inhibition of EMT; also recorded: excellent inhibiting abilities similar to SEQ6”.

For `CC[C@H](C)[C@H](NC(=O)[C@@H](NC(=O)[C@H](CO)NC(=O)[C@H](Cc1ccccc1)NC(=O)[C@@H](N)CO)C(C)C)C(=O)N[C@@H](CC(=O)O)C(=O)N[C@@H](CCCCN)C(=O)N1CCC[C@H]1C(=O)N1CCC[C@H]1C(=O)NCC(=O)N[C@@H](CCSC)C(=O)N[C@@H](C)C(=O)N[C@@H](CCC(=O)O)C(=O)N[C@@H](CCCCN)C(=O)N[C@@H](Cc1c[nH]c2ccccc12)C(=O)O` [SEQ5, SFSVIDKPPGMAEKW] (H-SFSVIDKPPGMAEKW-OH; N-terminus and C-terminus assumed), in the data set with MDCK cells, the “inhibition of HGF” value was “inhibited”.

In the case of CMAEKWKIARDDDDDDC [CMR9D6C DF], the “collapse of volume of tube structure compared to PBS-treated control” value in data set [1] is recorded as 95%.

On to MAEKWKIARDDDDDD [MR9D6 DF], for which the “collapse of volume of tube structure compared to PBS-treated control” value in data set [1] is listed as 95%.

“Eylea: Eylea, comparator treatment (200 μg/5 μl) in the rat choroidal neovascularization model [reference compound]”: the “inhibition of rat eyes choroidal neovascularization” value in data set [2] is given as “significantly inhibit”.

Take RRRRRRRMAEKWKIAR [SEQ78]: in data set [1], the “inhibition of angiogenesis / HUVEC tube structure” value is “inhibit angiogenesis”.

As to `CC[C@H](C)[C@H](NC(=O)[C@H](CC(C)C)NC(=O)[C@H](Cc1ccccc1)NC(=O)[C@H](CCC(N)=O)NC(=O)[C@@H](NC(=O)[C@H](CCC(=O)O)NC(=O)[C@H](CO)NC(=O)[C@H](CCCNC(=N)N)NC(=O)CNC(=O)[C@H](CC(C)C)NC(=O)[C@H](CCCCN)NC(=O)[C@H](CCCCN)NC(=O)[C@@H](N)CCC(=O)O)[C@@H](C)CC)C(=O)N[C@@H](CO)C(=O)N[C@@H](CC(=O)O)C(=O)O` [SEQ8, EKKLGRSEIQFLISD] (H-EKKLGRSEIQFLISD-OH; N-terminus and C-terminus assumed), in the data set with MDCK cells, the “inhibition of HGF” value is reported as “inhibited”.

As to MAEKWKIARDDDDDD [SEQ97], the “inhibition of angiogenesis / HUVEC tube structure” value in data set [1] is “inhibit angiogenesis”. Moreover, the “inhibition of rat eyes choroidal neovascularization” value in data set [2] is on record as “significantly inhibit”.

For the compound `CC[C@H](C)[C@H](NC(=O)[C@H](CCCCN)NC(=O)[C@H](Cc1c[nH]c2ccccc12)NC(=O)[C@H](CCCCN)NC(=O)[C@H](CCC(=O)O)NC(=O)[C@H](C)NC(=O)[C@@H](N)CCSC)C(=O)N[C@@H](C)C(=O)N[C@@H](CCCNC(=N)N)C(=O)N[C@@H](CCC(N)=O)C(=O)N[C@@H](CCC(=O)O)C(=O)O` [SEQ15, MAEKWKIARQE] (H-MAEKWKIARQE-OH; N-terminus and C-terminus assumed), the “inhibition of HGF” value in the data set with MDCK cells is given as “excellent inhibiting abilities similar to SEQ6”.
